{"source": "ChEMBL document CHEMBL4002629", "about": "“Design, synthesis and biological evaluation of novel 3-substituted 4-anilino-coumarin derivatives as antitumor agents” (Bioorg Med Chem Lett, 2017)", "key": {"MCF7 [1]": {"test_system": "MCF7", "assay": "Antiproliferative activity against human MCF7 cells after 48 hrs by MTT assay", "type": "functional, cell-based", "conditions": "MCF7, 48 h"}, "HepG2": {"test_system": "HepG2", "assay": "Antiproliferative activity against human HepG2 cells after 48 hrs by MTT assay", "type": "functional, cell-based", "conditions": "HepG2, 48 h"}, "HCT-116": {"test_system": "HCT-116", "assay": "Antiproliferative activity against human HCT116 cells after 48 hrs by MTT assay", "type": "functional, cell-based", "conditions": "HCT-116, 48 h"}, "PANC-1": {"test_system": "PANC-1", "assay": "Antiproliferative activity against human PANC1 cells after 48 hrs by MTT assay", "type": "functional, cell-based", "conditions": "PANC-1, 48 h"}, "MCF7 [2]": {"test_system": "MCF7", "assay": "Cell cycle arrest in human MCF7 cells assessed as accumulation at G0/G1 phase at 5 uM after 48 hrs by propidium iodide staining-based flow cytometric method (reference value: 55.56 +/- 0.91%)", "type": "functional"}, "MCF7 [3]": {"test_system": "MCF7", "assay": "Cell cycle arrest in human MCF7 cells assessed as accumulation at G2/M phase at 5 uM after 48 hrs by propidium iodide staining-based flow cytometric method (reference value: 24.16 +/- 2.29%)", "type": "functional"}, "MCF7 [4]": {"test_system": "MCF7", "assay": "Cell cycle arrest in human MCF7 cells assessed as accumulation at G0/G1 phase at 10 uM after 48 hrs by propidium iodide staining-based flow cytometric method (reference value: 55.56 +/- 0.91%)", "type": "functional"}, "MCF7 [5]": {"test_system": "MCF7", "assay": "Cell cycle arrest in human MCF7 cells assessed as accumulation at G2/M phase at 10 uM after 48 hrs by propidium iodide staining-based flow cytometric method (reference value: 24.16 +/- 2.29%)", "type": "functional"}, "MCF7 [6]": {"test_system": "MCF7", "assay": "Cell cycle arrest in human MCF7 cells assessed as accumulation at G0/G1 phase at 15 uM after 48 hrs by propidium iodide staining-based flow cytometric method (reference value: 55.56 +/- 0.91%)", "type": "functional"}, "MCF7 [7]": {"test_system": "MCF7", "assay": "Cell cycle arrest in human MCF7 cells assessed as accumulation at G2/M phase at 15 uM after 48 hrs by propidium iodide staining-based flow cytometric method (reference value: 24.16 +/- 2.29%)", "type": "functional"}, "MCF7 [8]": {"test_system": "MCF7", "assay": "Induction of apoptosis in human MCF7 cells assessed as cell distortion at 5 to 15 uM after 24 hrs by Hoechst 33258 staining-based inverted microscopy", "type": "functional"}, "MCF7 [9]": {"test_system": "MCF7", "assay": "Induction of apoptosis in human MCF7 cells assessed as membrane blebbing at 5 to 15 uM after 24 hrs by Hoechst 33258 staining-based inverted microscopy", "type": "functional, cell-based"}, "MCF7 [10]": {"test_system": "MCF7", "assay": "Induction of apoptosis in human MCF7 cells assessed as membrane shrinkage at 5 to 15 uM after 24 hrs by Hoechst 33258 staining-based inverted microscopy", "type": "functional, cell-based"}, "MCF7 [11]": {"test_system": "MCF7", "assay": "Induction of apoptosis in human MCF7 cells assessed as cell rounding up at 5 to 15 uM after 24 hrs by Hoechst 33258 staining-based inverted microscopy", "type": "functional"}, "MCF7 [12]": {"test_system": "MCF7", "assay": "Induction of apoptosis in human MCF7 cells assessed as early apoptotic cells at 5 uM after 48 hrs by annexin V-propidium iodide staining-based flow cytometry (reference value: 3.2%)", "type": "functional"}, "MCF7 [13]": {"test_system": "MCF7", "assay": "Induction of apoptosis in human MCF7 cells assessed as late apoptotic cells at 5 uM after 48 hrs by annexin V-propidium iodide staining-based flow cytometry (reference value: 0.1%)", "type": "functional"}, "MCF7 [14]": {"test_system": "MCF7", "assay": "Induction of apoptosis in human MCF7 cells assessed as necrotic cells at 5 uM after 48 hrs by annexin V-propidium iodide staining-based flow cytometry (reference value: 0.3%)", "type": "functional"}, "MCF7 [15]": {"test_system": "MCF7", "assay": "Induction of apoptosis in human MCF7 cells assessed as viable cells at 5 uM after 48 hrs by annexin V-propidium iodide staining-based flow cytometry (reference value: 96.3%)", "type": "functional", "conditions": "MCF7, 48 h, read-out: Activity"}, "MCF7 [16]": {"test_system": "MCF7", "assay": "Induction of apoptosis in human MCF7 cells assessed as early apoptotic cells at 10 uM after 48 hrs by annexin V-propidium iodide staining-based flow cytometry (reference value: 3.2%)", "type": "functional"}, "MCF7 [17]": {"test_system": "MCF7", "assay": "Induction of apoptosis in human MCF7 cells assessed as late apoptotic cells at 10 uM after 48 hrs by annexin V-propidium iodide staining-based flow cytometry (reference value: 0.1%)", "type": "functional"}, "MCF7 [18]": {"test_system": "MCF7", "assay": "Induction of apoptosis in human MCF7 cells assessed as necrotic cells at 10 uM after 48 hrs by annexin V-propidium iodide staining-based flow cytometry (reference value: 0.3%)", "type": "functional"}, "MCF7 [19]": {"test_system": "MCF7", "assay": "Induction of apoptosis in human MCF7 cells assessed as viable cells at 10 uM after 48 hrs by annexin V-propidium iodide staining-based flow cytometry (reference value: 96.3%)", "type": "functional", "conditions": "MCF7, 48 h, read-out: Activity"}, "MCF7 [20]": {"test_system": "MCF7", "assay": "Induction of apoptosis in human MCF7 cells assessed as early apoptotic cells at 15 uM after 48 hrs by annexin V-propidium iodide staining-based flow cytometry (reference value: 3.2%)", "type": "functional"}, "MCF7 [21]": {"test_system": "MCF7", "assay": "Induction of apoptosis in human MCF7 cells assessed as late apoptotic cells at 15 uM after 48 hrs by annexin V-propidium iodide staining-based flow cytometry (reference value: 0.1%)", "type": "functional"}, "MCF7 [22]": {"test_system": "MCF7", "assay": "Induction of apoptosis in human MCF7 cells assessed as necrotic cells at 15 uM after 48 hrs by annexin V-propidium iodide staining-based flow cytometry (reference value: 0.3%)", "type": "functional"}, "MCF7 [23]": {"test_system": "MCF7", "assay": "Induction of apoptosis in human MCF7 cells assessed as viable cells at 15 uM after 48 hrs by annexin V-propidium iodide staining-based flow cytometry (reference value: 96.3%)", "type": "functional", "conditions": "MCF7, 48 h, read-out: Activity"}, "HUVEC": {"test_system": "HUVEC", "assay": "Antiproliferative activity against HUVEC after 48 hrs by MTT assay", "type": "cell-based", "conditions": "Homo sapiens"}, "[24]": {"assay": "Selectivity index, ratio of IC50 for HUVEC to IC50 for human MCF7 cells"}, "[25]": {"assay": "Selectivity index, ratio of IC50 for HUVEC to IC50 for human HepG2 cells"}, "[26]": {"assay": "Selectivity index, ratio of IC50 for HUVEC to IC50 for human HCT116 cells"}, "[27]": {"assay": "Selectivity index, ratio of IC50 for HUVEC to IC50 for human PANC1 cells"}, "MCF7 [28]": {"test_system": "MCF7", "assay": "Induction of apoptosis in human MCF7 cells after 48 hrs by annexin V-propidium iodide staining-based flow cytometry", "type": "functional, cell-based"}}, "note": "Activity calls are given as the source filed them. The rule behind the calls is not given here."}
{"smiles": "COc1ccc2oc(=O)c(C(=O)C(F)(F)F)c(Nc3ccc4c(c3)OCO4)c2c1", "values": [{"measurement": "IC50", "setting": "MCF7 [1]", "result": 16.6, "unit": "µM"}, {"measurement": "IC50", "setting": "HepG2", "result": 5.45, "unit": "µM"}, {"measurement": "IC50", "setting": "HCT-116", "result": 4.42, "unit": "µM"}, {"measurement": "IC50", "setting": "PANC-1", "result": 5.16, "unit": "µM"}, {"measurement": "Activity", "setting": "MCF7 [2]", "result": 45.12, "unit": "%"}, {"measurement": "Activity", "setting": "MCF7 [3]", "result": 26.13, "unit": "%"}, {"measurement": "Activity", "setting": "MCF7 [4]", "result": 30.15, "unit": "%"}, {"measurement": "Activity", "setting": "MCF7 [5]", "result": 41.93, "unit": "%"}, {"measurement": "Activity", "setting": "MCF7 [6]", "result": 21.93, "unit": "%"}, {"measurement": "Activity", "setting": "MCF7 [7]", "result": 63.06, "unit": "%"}, {"measurement": "Activity", "setting": "MCF7 [8]", "result": "Active"}, {"measurement": "Activity", "setting": "MCF7 [9]", "result": "Active"}, {"measurement": "Activity", "setting": "MCF7 [10]", "result": "Active"}, {"measurement": "Activity", "setting": "MCF7 [11]", "result": "Active"}, {"measurement": "Activity", "setting": "MCF7 [12]", "result": 16.3, "unit": "%"}, {"measurement": "Activity", "setting": "MCF7 [13]", "result": 1.3, "unit": "%"}, {"measurement": "Activity", "setting": "MCF7 [14]", "result": 1.1, "unit": "%"}, {"measurement": "viability at 5 µM", "setting": "MCF7 [15]", "result": 81.3, "unit": "%"}, {"measurement": "Activity", "setting": "MCF7 [16]", "result": 20.2, "unit": "%"}, {"measurement": "Activity", "setting": "MCF7 [17]", "result": 1.9, "unit": "%"}, {"measurement": "Activity", "setting": "MCF7 [18]", "result": 1.6, "unit": "%"}, {"measurement": "viability at 10 µM", "setting": "MCF7 [19]", "result": 76.3, "unit": "%"}, {"measurement": "Activity", "setting": "MCF7 [20]", "result": 32.1, "unit": "%"}, {"measurement": "Activity", "setting": "MCF7 [21]", "result": 4.7, "unit": "%"}, {"measurement": "Activity", "setting": "MCF7 [22]", "result": 3.3, "unit": "%"}, {"measurement": "viability at 15 µM", "setting": "MCF7 [23]", "result": 59.9, "unit": "%"}, {"measurement": "IC50", "setting": "HUVEC", "result": 26.3, "unit": "µM"}, {"measurement": "Ratio IC50", "setting": "[24]", "result": 1.59}, {"measurement": "Ratio IC50", "setting": "[25]", "result": 4.82}, {"measurement": "Ratio IC50", "setting": "[26]", "result": 5.94}, {"measurement": "Ratio IC50", "setting": "[27]", "result": 5.09}, {"measurement": "Activity", "setting": "MCF7 [28]", "result": "Dose-dependent effect"}]}
